Source: publication PMC3341351, “Down-Regulation of GABAA Receptor via Promiscuity with the Vasoactive Peptide Urotensin II Receptor. Potential Involvement in Astrocyte Plasticity” (PLoS ONE, 2012)

Columns and labels:
[1] = molecular target: T1, α2β3γ2 GABAAR co-expressed with human UT (Homo sapiens, UniProt Q9UKP6); assay: Patch-clamp of Iso-evoked current in CHO-UT co-expressing α2β3γ2 GABAAR (CHO-UT-GABAAR); format: cell-based
T1 construct: expressed in transfected cells; host or cells: CHO-K1 stably expressing human UT (pIRES-neo2-UT), transiently nucleofected with GABAAR subunit cDNAs
T1 sequence (Q9UKP6 1-389): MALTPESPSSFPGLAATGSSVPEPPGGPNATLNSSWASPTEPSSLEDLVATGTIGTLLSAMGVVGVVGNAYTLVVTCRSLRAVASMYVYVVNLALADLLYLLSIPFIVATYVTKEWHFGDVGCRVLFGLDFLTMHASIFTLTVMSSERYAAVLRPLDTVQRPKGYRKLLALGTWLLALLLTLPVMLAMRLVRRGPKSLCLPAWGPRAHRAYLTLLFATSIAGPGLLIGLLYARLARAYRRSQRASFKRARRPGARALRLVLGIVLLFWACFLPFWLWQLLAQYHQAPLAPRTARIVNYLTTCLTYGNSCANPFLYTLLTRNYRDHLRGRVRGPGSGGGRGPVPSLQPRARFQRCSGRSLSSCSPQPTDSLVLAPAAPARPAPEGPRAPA
Procedure: CHO-K1 cell lines were obtained from American Type Culture Collection (Manassas, VA, USA). The human UT stable CHO (CHO-UT) was generously provided by Dr Christophe Dubessy (Inserm, Rouen University, France) et generated by CHO electroporation with 20 µg pIRES-neo2-UT DNA and 500 µg sterile sonicated salmon sperm DNA using the EasyJect One electroporation system (Equibio, Angleur, Belgium), followed by repetitive rounds of limiting dilution of cells in G-418 (400 µg/ml) for selection. Normal or stable CHO was grown in Ham-F12 medium supplemented with 10% FBS, 1% antibiotic-antimicotic solution and 2 mM glutamine, at 37°C in a humidified incubator with an atmosphere of 5% CO2. The stable CHO-UT medium was supplemented with the antibiotic G-418 (40 µg/ml).
For transfection, cells were trypsinized (0.05%), triturated in HamF-12 containing 10% FBS media, pelleted by centrifugation, resuspended in 100 µl solution V for nucleofection by an Amaxa Nucleofector Device (Köln, Germany; set to program U-016). Experiments were performed on normal CHO or on the stable CHO-UT cells and transiently transfected with combinations of cDNA encoding α2β3γ2, α2β3γ1, α2β1γ2, α2β3γ1, α2β3, β3γ2 (4 µg of cDNA total/transfection) GABAAR subunits. Cells were seeded on 14-mm poly-L-lysine-coated glass bottom insert dishes at 5×10^5 cells in a volume of 0.5 ml/dish. Cells were incubated overnight at 37°C in a humidified incubator (5% CO2) during 16 h before electrophysiological or immunocytochemical experiments.
GABAA receptor cDNA clones; α2, β1, β3, γ1 and γ2L engineered into the expression vector pCDM8 ([…], β1, γ2) or pcDNA/Amp (β3, γ1), were generously provided by Dr Wingrove (Merk Sharp and Dohme, Harlow, UK). To obtain β3 ^HA or γ2 ^HA epitope-tagged subunits, β3 or γ2 cDNA was amplified and the PCR product was subcloned using the SalI and NotI sites of pCMV-HA (Table S2) after digestion by the same restriction enzymes.
The conventional whole-cell configuration of the patch-clamp technique was used to study the GABA-gated currents in astrocytes and granule neurons, UT stably transfected CHO, CHO-UT, and CHO transiently transfected with diverse variants of UT and GABAAR subunits. After 24-h transfection, cell culture coverslips were placed in a small chamber (1.5 ml) on a stage of a right microscope DMLFSA (Leica, Heidelberg, Germany) and superfused continuously with the following bath solution containing (in mM): NaCl, 150; KCl, 2.5; HEPES, 5; CaCl2, 2; MgCl2, 1; glucose, 10 (pH 7.4 adjusted with NaOH). The patch pipettes were fabricated from 1.5 mm (outer diameter) soft glass tubes on a two-step vertical pipette puller (List-Medical, L/M-3P-A, Darmstadt, Germany). […] ATP and GTP were added to the internal solution used to fill electrode just before recording. All recordings were obtained at RT with cells voltage-clamped at −70 mV. The GABAA receptor agonist isoguvacine was prepared in the extracellular solution and was applied to cells by pneumatic pressure ejection. To prevent desenzitization, isoguvacine was more often ejected during 5 s at 2-min intervals. ATP, GTP, or guanosine 5′-O-(2-thiodiphosphate) (GDPβS) were administered through the patch pipette solution. We investigated the effect of competitive inhibition of GDP-GTP exchange by including GDPβS in the pipette solution (in addition to the normal amount of GTP). For GDPβS and the KIC, immediately following patch rupture, GABA current recordings were performed and the experiment was commenced after an equilibration period of 15 min.
All peptide ligands, inhibitors or allosteric modulators of the GABAA receptor function were applied via gravity through a plastic tubing positioned in the vicinity of the cell body in order to maintain a sustained perfusion. In these conditions, drugs could reach the cell of interest after 30 s of perfusion. Isoguvacine was applied focally by pneumatic pressure ejection from a micropipette.

[2] = test system: GABAAR co-expressed with UT^HA 370; assay: Patch-clamp of Iso-evoked current in CHO co-expressing GABAAR and truncated UT^HA 370; format: cell-based; conditions: hUII 10^−8 M, 1 min, Iso 10^−4 M, 2 s
From the text: For UT epitope-tagged with HA (UT^HA), or c-myc (UT^c-myc), human UT receptor cDNA inserted into pcDNA3.1 (Ressource Center, MI, USA) was amplified and PCR products were subcloned using the EcoRI and XhoI sites of pCMV-HA or pCMV-c-myc. Mutant UT receptor cDNAs were constructed by oligonucleotide-directed mutagenesis (Expand High Fidelity PCR System; Roche) using the human UT receptor cDNA inserted into pcDNA3.1 as a template. Two sets of forward and reverse oligonucleotides were used (Table S2) to introduce stop codons in frame of Leu370, Phe351, Gly332 and Thr319 (to generate UT371, UT351, UT332 and UT319, respectively). PCR products were subcloned using the EcoRI and XhoI sites of pCMV-HA after digestion by the same restriction enzymes. Mutagenesis was confirmed by automated nucleotide sequencing.
The conventional whole-cell configuration of the patch-clamp technique was used to study the GABA-gated currents in astrocytes and granule neurons, UT stably transfected CHO, CHO-UT, and CHO transiently transfected with diverse variants of UT and GABAAR subunits. After 24-h transfection, cell culture coverslips were placed in a small chamber (1.5 ml) on a stage of a right microscope DMLFSA (Leica, Heidelberg, Germany) and superfused continuously with the following bath solution containing (in mM): NaCl, 150; KCl, 2.5; HEPES, 5; CaCl2, 2; MgCl2, 1; glucose, 10 (pH 7.4 adjusted with NaOH). […]

[3] = test system: cultured rat cortical astrocytes; design: method as in PMID 16942596, PMID 20192922; conditions: ref [41], [42]; cited from earlier work

For `O=C(O)C1=CCNCC1` [Iso, isoguvacine], the “Apparent desensitization of Iso-evoked current” value ([1]; Iso 10^−4 M continuous ejection, control (Iso alone) or with hUII 10^−8 M) was 59%, the “Chloride reversal potential (EqCl^−)” value ([1]; I–V relationship, Iso 10^−4 M without (control) or with hUII 10^−8 M) was 4.84 mV and the “Mean time constant of recovery from desensitization (50% receptors)” value ([1]; after long Iso exposure (30 s), control (Iso alone) or with hUII) was 16.2 s.
For “ETPDCFWKYCV (disulfide) [hUII, human urotensin II, synthesized by solid phase methodology]”, the “hUII-induced fast short-term inhibition with UT^HA 370” value [2] was “totally abolished” and the “hUII-induced long-term inhibition with UT^HA 370” value ([2]; washout) was “delayed, and significantly altered”.
In the case of “UII: Urotensin II, species not stated at that place (rUII in astrocytes, hUII in CHO and human cells)”, the “Effect on cell proliferation” value [3] is given as “stimulates cell proliferation”.
